Measurements published in ChEMBL document CHEMBL1201862, “PubChem BioAssay data set” (2004).
Calls of active or inactive are those of the source.

Key:
DLD-1 [1] = assay: KLF5 protein lowering by immunoblot – western blot, chemiluminescence, DLD-1 cells, titration, orthogonal assay for KLF5 inhibitor project, late-stage follow-up (AID 485336); type: functional, cell-based; conditions: Homo sapiens
[2] = viability of uninfected HEp-2 cells – cell-based, HTS, cytotoxicity control for RSV inhibitor project, dose response (AID 2410); type: functional; conditions: human respiratory syncytial virus
[3] = Luminescence-based counterscreen assay for KLF5 inhibitors: dose response cell-based high throughput screening assay to identify cytotoxic compounds using the IEC-6 intestinal epithelial cell line. [Related pubchem assays: 1700 (Primary screen.), 1834 (Confirmation screen.), 1858 (Summary AID.), 1905 (Counterscreen.)]; type: functional
DLD-1 [4] = assay: DLD-1 cell viability reduction – luminescence, round 1, cytotoxicity control for KLF5 inhibitor project, late-stage follow-up (AID 485338); type: functional, cell-based; conditions: Homo sapiens
[5] = Luminescence Cell-Based Dose Retest to Confirm Inhibitors of Cancer Stem Cells. [Related pubchem assays (depositor defined):AID2717, AID2721]; type: functional; conditions: Homo sapiens
[6] = tested on: Streptococcus sp. 'group A'; assay: Streptococcus pyogenes SK(-)GAS viability under kanamycin – luminescence, BacTiterGlo, confirmation, counter-screen for streptokinase expression inhibitor project, dose response (AID 1900); type: functional, organism-based
SUMO-activating enzyme [7] = molecular target: T1, SUMO-activating enzyme (Homo sapiens, UniProt Q9UBT2); assay: blockers of UBC9-mediated SUMO conjugation – biochemical, AlphaScreen, SUMOylation inhibitor project, confirmation (AID 2018); type: functional
Streptokinase A = molecular target: T2, Streptokinase A (Streptococcus pyogenes serotype M1, UniProt P10520); assay: viability-normalized secreted streptokinase activity reduction – plasminogen activation absorbance, OD405, dose response (AID 1914); type: functional, Streptococcus pyogenes M1 GAS;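 further: secreted streptokinase activity via plasminogen activation per viability signal from cell pellet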
T2 sequence (P10520 whole entry): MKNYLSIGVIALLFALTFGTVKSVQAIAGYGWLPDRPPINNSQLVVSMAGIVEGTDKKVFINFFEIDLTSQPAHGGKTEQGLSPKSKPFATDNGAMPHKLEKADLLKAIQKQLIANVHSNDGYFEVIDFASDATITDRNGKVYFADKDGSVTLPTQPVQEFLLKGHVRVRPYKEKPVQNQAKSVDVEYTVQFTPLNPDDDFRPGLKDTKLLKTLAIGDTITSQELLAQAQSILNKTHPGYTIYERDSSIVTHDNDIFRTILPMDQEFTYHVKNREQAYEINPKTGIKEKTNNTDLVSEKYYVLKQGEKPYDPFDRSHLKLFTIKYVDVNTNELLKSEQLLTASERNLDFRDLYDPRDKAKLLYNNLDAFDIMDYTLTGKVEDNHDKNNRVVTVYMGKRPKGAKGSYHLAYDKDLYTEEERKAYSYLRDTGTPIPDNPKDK

SUMO-activating enzyme [8] = molecular target: T1, SUMO-activating enzyme; assay: blockers of SAE1/SAE2–UBC9 SUMO transfer – biochemical, HTRF, uHTS, primary screen (AID 2006); type: protein-complex assay
[9] = viability of PTEN-deleted HCT116 cells – cell-based, HCT116 PTEN knockout, dose response (AID 1047); type: functional;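 further: HCT116 colon tumor cells with PTEN knocked out; cells exposed to compound for 60 hours before readout; potency for loss of cell viability measured by luminescence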
[10] = viability of HCT116 lacking mutant beta-catenin – cell-based, human colon tumor, dose response (AID 1045); type: functional;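 further: HCT116 colon tumor cells with beta catenin knocked out; cells exposed to compound for 60 hours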
Streptococcus = assay: GAS UMAA2166 growth inhibition – luminescence, BacTiterGlo, counter-screen for streptokinase expression inhibitor project, dose response (AID 1915); type: functional, organism-based;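 further: potency for reduction of bacterial viability or growth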
[11] = molecular target: T3, Carboxy-terminal domain RNA polymerase II polypeptide A small phosphatase 1 (Homo sapiens, UniProt Q9GZU7); assay: CTDSP1 inhibitors, concentration-response, biochemical, absorbance readout, ultra-high-throughput screen actives (AID 540297); type: functional
T3 sequence (Q9GZU7 whole entry): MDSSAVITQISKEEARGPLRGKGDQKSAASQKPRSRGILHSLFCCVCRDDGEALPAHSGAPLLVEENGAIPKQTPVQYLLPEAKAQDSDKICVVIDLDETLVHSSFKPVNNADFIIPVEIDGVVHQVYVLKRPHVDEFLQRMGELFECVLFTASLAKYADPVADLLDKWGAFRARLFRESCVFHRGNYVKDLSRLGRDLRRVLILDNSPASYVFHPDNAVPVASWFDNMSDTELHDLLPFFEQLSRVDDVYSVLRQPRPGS

[12] = molecular target: T4, G-protein coupled receptor 55 (Homo sapiens, UniProt Q9Y2T6); assay: inhibition of LPI-stimulated GPR55 beta-arrestin translocation – imaging, U2OS, beta-arrestin-GFP, LPI agonist, primary screen (AID 2013); type: functional;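 further: antagonist potency measured as reduced agonist-driven arrestin aggregation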
Cannabinoid receptor 1 [13] = molecular target: T5, Cannabinoid receptor 1 (Homo sapiens, UniProt P21554); assay: SAR analysis of antagonists of the Cannabinoid Receptor 1 using an Image-Based Assay - Set 2. [Related pubchem assays (depositor defined):AID2013, AID2026]; type: functional
[14] = molecular target: T6, G-protein coupled receptor 35 (Homo sapiens, UniProt Q9HC97); assay: SAR analysis of Agonists of the GPR35 Receptor using an Image-Based Assay - Set 2. [Related pubchem assays (depositor defined):AID2013, AID2026]; type: functional
Cannabinoid receptor 2 [15] = molecular target: T7, Cannabinoid receptor 2 (Homo sapiens, UniProt P34972); assay: SAR analysis of antagonists of the Cannabinoid Receptor 2 using an Image-Based Assay. [Related pubchem assays (depositor defined):AID2013, AID2026]; type: functional
Cannabinoid receptor 1 [16] = molecular target: T5, Cannabinoid receptor 1; assay: SAR analysis of agonists of the Cannabinoid Receptor 1 using an Image-Based Assay - Set 2. [Related pubchem assays (depositor defined):AID2013, AID2026]; type: functional
[17] = molecular target: T6, G-protein coupled receptor 35; assay: SAR analysis of Antagonists of the GPR35 Receptor using an Image-Based Assay - Set 3. [Related pubchem assays (depositor defined):AID2013, AID2026]; type: functional
[18] = molecular target: T4, G-protein coupled receptor 55; assay: blockade of LPI-induced GPR55 arrestin translocation – imaging, U2OS, beta-arrestin-GFP, LPI agonist, set 2, SAR follow-up (AID 2820); type: functional
Cannabinoid receptor 2 [19] = molecular target: T7, Cannabinoid receptor 2; assay: SAR analysis of agonists of the Cannabinoid Receptor 2 using an Image-Based Assay. [Related pubchem assays (depositor defined):AID2013, AID2026]; type: functional
Coagulation factor XII = molecular target: T8, Coagulation factor XII (Homo sapiens, UniProt P00748); assay: Factor XIIa Dose Response Confirmation from Single Well HTS. [Related pubchem assays (depositor defined):AID701]; type: functional
T8 sequence (P00748 whole entry): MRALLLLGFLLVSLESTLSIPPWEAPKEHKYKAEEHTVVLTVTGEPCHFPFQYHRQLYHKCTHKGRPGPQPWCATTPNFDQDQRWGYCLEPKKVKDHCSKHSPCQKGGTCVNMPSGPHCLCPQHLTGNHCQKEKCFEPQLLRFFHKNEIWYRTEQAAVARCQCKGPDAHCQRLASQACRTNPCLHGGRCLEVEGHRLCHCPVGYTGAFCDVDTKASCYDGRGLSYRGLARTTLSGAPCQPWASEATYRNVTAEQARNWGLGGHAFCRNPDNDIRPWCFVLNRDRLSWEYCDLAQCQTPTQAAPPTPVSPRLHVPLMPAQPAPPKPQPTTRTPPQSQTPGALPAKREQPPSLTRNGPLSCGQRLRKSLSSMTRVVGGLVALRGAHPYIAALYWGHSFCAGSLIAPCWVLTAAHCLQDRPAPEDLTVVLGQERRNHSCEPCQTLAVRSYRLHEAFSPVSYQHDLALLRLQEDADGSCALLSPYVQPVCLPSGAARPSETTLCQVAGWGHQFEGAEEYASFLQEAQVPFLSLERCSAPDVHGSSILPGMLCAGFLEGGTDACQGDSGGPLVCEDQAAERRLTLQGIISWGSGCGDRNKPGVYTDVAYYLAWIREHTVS

[20] = molecular target: T9, Intestinal-type alkaline phosphatase (Homo sapiens, UniProt P09923); assay: Dose Response confirmation of uHTS hits from a small molecule inhibitors of human intestinal alkaline phosphatase via a luminescent assay. [Related pubchem assays (depositor defined):AID2544, AID2574]; type: functional
[21] = molecular target: T9, Intestinal-type alkaline phosphatase; assay: human intestinal alkaline phosphatase activators, dose response, biochemical, luminescence, uHTS hits (AID 463120); type: functional
Hexokinase HKDC1 = molecular target: T10, Hexokinase HKDC1 (Homo sapiens, UniProt Q2TB90); assay: activation of HKDC1 glucose phosphorylation – biochemical, W721R variant, dose response (AID 504730); type: functional
T10 sequence (Q2TB90 whole entry): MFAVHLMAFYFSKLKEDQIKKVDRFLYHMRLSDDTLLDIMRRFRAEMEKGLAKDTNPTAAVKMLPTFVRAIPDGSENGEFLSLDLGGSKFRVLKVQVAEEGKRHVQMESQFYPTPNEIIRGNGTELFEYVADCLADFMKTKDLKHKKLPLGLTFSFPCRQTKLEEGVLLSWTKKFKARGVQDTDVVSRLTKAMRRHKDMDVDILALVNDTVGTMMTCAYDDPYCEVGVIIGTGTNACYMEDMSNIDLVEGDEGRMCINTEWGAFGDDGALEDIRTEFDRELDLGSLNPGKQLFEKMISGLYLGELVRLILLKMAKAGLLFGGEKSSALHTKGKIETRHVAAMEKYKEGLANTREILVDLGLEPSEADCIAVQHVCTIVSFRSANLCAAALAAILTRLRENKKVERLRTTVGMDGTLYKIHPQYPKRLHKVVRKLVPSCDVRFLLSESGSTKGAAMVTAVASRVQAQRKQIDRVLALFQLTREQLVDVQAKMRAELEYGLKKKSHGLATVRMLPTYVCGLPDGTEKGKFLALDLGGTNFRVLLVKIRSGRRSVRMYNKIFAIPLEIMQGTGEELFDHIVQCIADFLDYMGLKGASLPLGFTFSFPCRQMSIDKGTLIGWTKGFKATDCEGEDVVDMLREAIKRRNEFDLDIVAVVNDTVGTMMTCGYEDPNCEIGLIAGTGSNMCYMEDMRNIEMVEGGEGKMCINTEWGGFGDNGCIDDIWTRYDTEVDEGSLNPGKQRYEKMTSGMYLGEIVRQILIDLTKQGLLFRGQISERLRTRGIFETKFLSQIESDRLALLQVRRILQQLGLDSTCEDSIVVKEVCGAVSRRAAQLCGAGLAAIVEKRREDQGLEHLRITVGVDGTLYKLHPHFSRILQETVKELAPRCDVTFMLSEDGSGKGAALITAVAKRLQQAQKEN

Hexokinase-1 = Hexokinase-1 (Homo sapiens, UniProt P19367); assay: HK1 enzyme activation by HKDC1 hits – biochemical, selectivity assay for HKDC1 activator project, dose response (AID 504762); type: functional
[22] = molecular target: T11, Type-1 angiotensin II receptor (Homo sapiens, UniProt P30556); assay: agonist activity at AGTR1 – cell-based, uHTS hits, selectivity assay for APJ receptor agonist project, dose response (AID 488865); type: functional;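 further: beta-arrestin recruitment to AT1 measured by enzyme fragment complementation luminescence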
T11 sequence (P30556 whole entry): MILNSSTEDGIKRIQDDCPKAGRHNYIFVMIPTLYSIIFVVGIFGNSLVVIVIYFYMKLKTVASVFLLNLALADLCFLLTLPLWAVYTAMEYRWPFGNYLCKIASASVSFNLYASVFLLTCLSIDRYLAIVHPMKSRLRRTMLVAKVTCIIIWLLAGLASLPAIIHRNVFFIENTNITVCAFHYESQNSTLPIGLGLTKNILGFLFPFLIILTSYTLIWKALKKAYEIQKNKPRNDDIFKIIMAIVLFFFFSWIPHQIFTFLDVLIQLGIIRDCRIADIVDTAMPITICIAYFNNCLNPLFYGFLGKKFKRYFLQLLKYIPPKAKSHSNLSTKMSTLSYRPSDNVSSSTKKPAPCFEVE

Protein Tat = molecular target: T12, Protein Tat (Human immunodeficiency virus type 1 group M subtype B (isolate HXB2)(HIV-1), UniProt P04608); type: functional;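 further: tat binding to TAR RNA read out by fluorescence polarization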
T12 sequence (P04608 whole entry): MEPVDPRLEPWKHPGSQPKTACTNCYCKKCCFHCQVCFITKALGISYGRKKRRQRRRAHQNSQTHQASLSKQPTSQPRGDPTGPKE
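Wherever AC50 is given: cells exposed to compound for roughly 70 hours or longer before luminescence read.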

T5 sequence (P21554 whole entry): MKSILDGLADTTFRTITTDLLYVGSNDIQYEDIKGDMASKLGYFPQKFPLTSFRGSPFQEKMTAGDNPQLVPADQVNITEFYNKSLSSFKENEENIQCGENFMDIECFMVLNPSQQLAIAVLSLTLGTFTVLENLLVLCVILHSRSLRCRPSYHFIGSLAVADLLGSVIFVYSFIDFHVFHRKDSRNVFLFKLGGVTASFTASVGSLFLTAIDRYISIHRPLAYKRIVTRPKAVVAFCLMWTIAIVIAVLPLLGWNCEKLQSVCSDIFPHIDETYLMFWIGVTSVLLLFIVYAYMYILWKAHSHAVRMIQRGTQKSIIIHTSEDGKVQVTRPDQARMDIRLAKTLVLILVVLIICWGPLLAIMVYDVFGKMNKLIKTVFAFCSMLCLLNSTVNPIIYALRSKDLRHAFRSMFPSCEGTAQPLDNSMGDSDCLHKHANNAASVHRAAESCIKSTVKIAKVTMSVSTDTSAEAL
T6 sequence (Q9HC97 whole entry): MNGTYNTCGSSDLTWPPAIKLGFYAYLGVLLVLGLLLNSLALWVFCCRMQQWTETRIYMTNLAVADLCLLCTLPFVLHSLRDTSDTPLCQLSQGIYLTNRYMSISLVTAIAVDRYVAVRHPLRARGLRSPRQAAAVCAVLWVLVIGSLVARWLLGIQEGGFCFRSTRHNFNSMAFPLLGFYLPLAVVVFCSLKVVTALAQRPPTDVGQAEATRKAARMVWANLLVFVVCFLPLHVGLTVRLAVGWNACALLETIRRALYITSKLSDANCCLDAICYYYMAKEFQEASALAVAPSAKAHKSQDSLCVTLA
T1 sequence (Q9UBE0 whole entry): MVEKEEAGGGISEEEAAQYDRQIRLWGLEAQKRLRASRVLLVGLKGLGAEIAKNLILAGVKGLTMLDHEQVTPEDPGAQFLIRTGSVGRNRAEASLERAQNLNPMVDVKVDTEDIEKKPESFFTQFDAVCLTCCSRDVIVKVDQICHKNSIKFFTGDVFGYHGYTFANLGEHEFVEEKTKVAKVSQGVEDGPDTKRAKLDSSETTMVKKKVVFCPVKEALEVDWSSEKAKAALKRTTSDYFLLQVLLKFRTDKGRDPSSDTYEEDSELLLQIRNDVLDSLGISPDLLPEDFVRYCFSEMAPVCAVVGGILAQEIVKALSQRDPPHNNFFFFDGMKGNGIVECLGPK
T1 sequence (Q9UBT2 whole entry): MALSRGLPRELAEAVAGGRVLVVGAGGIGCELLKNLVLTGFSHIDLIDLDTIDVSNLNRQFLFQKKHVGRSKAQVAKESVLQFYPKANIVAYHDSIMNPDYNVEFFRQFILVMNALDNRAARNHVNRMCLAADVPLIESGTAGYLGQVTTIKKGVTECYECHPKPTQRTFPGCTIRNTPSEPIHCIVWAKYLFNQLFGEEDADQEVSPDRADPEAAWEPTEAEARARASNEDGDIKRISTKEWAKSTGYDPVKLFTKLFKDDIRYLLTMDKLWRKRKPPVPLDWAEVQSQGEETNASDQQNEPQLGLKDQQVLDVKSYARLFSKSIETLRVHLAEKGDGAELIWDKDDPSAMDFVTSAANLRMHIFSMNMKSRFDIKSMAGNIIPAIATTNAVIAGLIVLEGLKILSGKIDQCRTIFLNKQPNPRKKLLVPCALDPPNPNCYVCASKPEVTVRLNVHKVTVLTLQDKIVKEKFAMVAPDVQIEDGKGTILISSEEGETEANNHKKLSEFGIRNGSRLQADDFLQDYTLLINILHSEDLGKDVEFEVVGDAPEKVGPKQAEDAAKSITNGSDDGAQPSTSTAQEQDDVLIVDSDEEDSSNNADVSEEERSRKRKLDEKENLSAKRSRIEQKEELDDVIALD
T7 sequence (P34972 whole entry): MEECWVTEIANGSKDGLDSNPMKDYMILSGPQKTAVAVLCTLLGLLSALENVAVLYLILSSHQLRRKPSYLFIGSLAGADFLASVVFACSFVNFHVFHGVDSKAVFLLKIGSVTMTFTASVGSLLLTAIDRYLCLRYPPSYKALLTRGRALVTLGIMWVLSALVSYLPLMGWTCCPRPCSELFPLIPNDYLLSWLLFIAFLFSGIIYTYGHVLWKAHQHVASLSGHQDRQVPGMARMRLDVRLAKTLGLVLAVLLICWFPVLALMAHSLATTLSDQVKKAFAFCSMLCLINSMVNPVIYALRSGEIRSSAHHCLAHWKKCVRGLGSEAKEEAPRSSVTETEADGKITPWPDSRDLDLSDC
T9 sequence (P09923 whole entry): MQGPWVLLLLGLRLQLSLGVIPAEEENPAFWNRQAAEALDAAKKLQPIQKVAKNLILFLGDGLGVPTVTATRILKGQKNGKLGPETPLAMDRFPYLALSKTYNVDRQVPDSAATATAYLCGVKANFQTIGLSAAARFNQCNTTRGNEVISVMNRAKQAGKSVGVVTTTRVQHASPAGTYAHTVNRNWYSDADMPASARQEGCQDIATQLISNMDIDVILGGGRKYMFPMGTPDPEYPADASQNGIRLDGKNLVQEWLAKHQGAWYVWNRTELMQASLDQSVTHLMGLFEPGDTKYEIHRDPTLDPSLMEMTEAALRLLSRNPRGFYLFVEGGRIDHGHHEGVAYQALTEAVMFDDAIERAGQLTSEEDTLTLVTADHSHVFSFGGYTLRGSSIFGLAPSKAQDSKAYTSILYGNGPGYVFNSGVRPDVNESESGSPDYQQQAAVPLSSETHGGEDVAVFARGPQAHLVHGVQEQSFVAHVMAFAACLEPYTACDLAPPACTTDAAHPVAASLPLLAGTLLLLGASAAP
T4 sequence (Q9Y2T6 whole entry): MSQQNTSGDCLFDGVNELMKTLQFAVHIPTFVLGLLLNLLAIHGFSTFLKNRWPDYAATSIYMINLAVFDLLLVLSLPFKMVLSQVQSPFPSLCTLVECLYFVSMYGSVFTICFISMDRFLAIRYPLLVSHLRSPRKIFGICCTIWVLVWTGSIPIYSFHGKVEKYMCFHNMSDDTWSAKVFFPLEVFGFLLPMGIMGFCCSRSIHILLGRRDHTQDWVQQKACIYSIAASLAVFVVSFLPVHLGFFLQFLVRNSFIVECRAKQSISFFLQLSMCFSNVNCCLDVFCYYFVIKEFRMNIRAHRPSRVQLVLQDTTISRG
Hexokinase-1, sequence (P19367 whole entry, the tested form may be a part): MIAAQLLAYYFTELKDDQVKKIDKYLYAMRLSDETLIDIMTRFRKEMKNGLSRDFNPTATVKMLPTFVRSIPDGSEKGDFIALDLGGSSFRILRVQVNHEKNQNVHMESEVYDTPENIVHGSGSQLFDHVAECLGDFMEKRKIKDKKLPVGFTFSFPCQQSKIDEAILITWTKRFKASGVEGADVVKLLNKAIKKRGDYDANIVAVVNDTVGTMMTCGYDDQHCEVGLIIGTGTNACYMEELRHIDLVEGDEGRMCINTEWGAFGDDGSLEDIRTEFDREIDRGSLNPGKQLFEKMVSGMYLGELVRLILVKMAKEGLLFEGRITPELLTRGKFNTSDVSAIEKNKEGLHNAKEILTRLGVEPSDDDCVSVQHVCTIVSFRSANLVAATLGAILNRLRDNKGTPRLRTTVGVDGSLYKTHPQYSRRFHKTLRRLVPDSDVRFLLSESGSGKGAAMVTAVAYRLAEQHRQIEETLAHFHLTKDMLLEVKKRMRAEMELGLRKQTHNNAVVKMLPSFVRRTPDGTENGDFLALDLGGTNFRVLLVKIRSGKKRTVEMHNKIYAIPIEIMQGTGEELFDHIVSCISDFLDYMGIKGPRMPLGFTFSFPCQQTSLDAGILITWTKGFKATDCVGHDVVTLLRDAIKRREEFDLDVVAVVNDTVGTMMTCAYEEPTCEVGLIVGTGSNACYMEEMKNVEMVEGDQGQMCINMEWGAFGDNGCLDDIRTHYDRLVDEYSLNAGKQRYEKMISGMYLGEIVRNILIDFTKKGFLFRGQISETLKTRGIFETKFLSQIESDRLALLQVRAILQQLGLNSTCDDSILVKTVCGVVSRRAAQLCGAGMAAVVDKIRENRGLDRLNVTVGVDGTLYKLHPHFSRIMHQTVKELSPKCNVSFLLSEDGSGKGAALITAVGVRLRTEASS

## CN(C(=O)COC(=O)/C=C/c1cccc([N+](=O)[O-])c1)C1CCS(=O)(=O)C1 (stereo not given)
DLD-1 [1]
  IC50: 2.25 µM (active)
[2]
  CC50: 11.4 µM (active)
[3]
  IC50: 32.3 µM (not active)
DLD-1 [4]
  IC50: 3.57 µM (active)
[5]
  AC50: 1.43 µM (active)

## COc1ccccc1-n1cnc2c(c1=O)c1nc3ccccc3nc1n2-c1ccc(C)c(C)c1
[6]
  EC50: 11.2 µM (active)
SUMO-activating enzyme [7]
  IC50: 5.24 µM (active)
Streptokinase A
  EC50: > 150 µM (not active)
SUMO-activating enzyme [8]
  IC50: 15.4 µM (active)
[9]
  EC50: 19.2 µM (active)
[10]
  EC50: 20.2 µM (active)
Streptococcus
  EC50: 59 µM (active)
[11]
  IC50: 7.53 µM (active)

## Cc1cccn2c(=O)c3cc(C(=O)NC4CCCC4)c(=N)n(C4CCCC4)c3nc12
[12]
  IC50: 1.24 µM (active)
Cannabinoid receptor 1 [13]
  IC50: > 32 µM (inactive)
[14]
  EC50: > 32 µM (inactive)
Cannabinoid receptor 2 [15]
  IC50: > 32 µM (inactive)
Cannabinoid receptor 1 [16]
  EC50: > 32 µM (inactive)
[17]
  IC50: > 32 µM (inactive)
[18]
  IC50: 0.965 µM (active)
Cannabinoid receptor 2 [19]
  EC50: > 32 µM (inactive)

## O=C(Oc1ccc(Cl)c2cccnc12)c1ccco1
[6]
  EC50: 3.93 µM (active)
Streptococcus
  EC50: 11.6 µM (active)
Coagulation factor XII
  IC50: 21.6 µM (active)

## COc1cccc(-c2nc(CS(=O)(=O)CC(=O)Nc3cc(OC)ccc3OC)c(C)o2)c1
[20]
  IC50: > 100 µM (inactive)
[21]
  EC50: > 100 µM (inactive)

## Cn1c(-c2ccccc2)c(C(=O)CC#N)c2ccccc21
Hexokinase HKDC1
  EC50: 39.2 µM (inactive)
Hexokinase-1
  EC50: 32 µM (inactive)

## COc1ccc2[nH]c(=O)c(CN(Cc3ccco3)C(c3nnnn3Cc3ccccc3)C(C)C)cc2c1 (stereo not given)
[22]
  EC50: > 100 µM (inactive)
Protein Tat
  IC50: > 100 µM (active)
